Consider 20 compounds from publication PMC12242667, “Attenuation of 6‑OHDA-Induced Neurotoxicity by 1,2,3-Triazole-Based Sulfonamides through SIRT1 Activity” (ACS Omega, 2025).

Structures are written as SMILES.

The subject of data set [1] is normal embryonic lung (MRC-5) cell line. As to the kind of experiment: Cytotoxicity on MRC-5 cell line, MTT assay. Format: cell-based. As to conditions: Homo sapiens, MRC5, MRC-5 cells, 48 h incubation. On the procedure:
Normal embryonic lung MRC-5 cells and neuroblastoma SH-SY5Y cells from the American Type Culture Collection (Manassas, VA, USA) were maintained in DMEM with 10% heat-inactivated FBS and 1% penicillin-streptomycin at 37 °C in humidified air containing 5% carbon dioxide.
Cytotoxicity of 1,2,3-triazole-based sulfonamides was evaluated by using a normal embryonic lung (MRC-5) cell line. The MRC-5 cells were cultured in 96-well microtiter plates (Corning Inc., NY, USA) at 5,000–20,000 cells/well and incubated for 24 h at 37 °C in humidified air containing 5% carbon dioxide. Subsequently, various concentrations of 1,2,3-triazole derivatives, doxorubicin (used as a positive control), and DMSO (used as a negative control) were added and incubated for an additional 48 h. MTT reagent (0.5 mg/mL in medium) was added for cell staining and incubated for 4 h. Then, the remaining formazan was dissolved in DMSO by sonication. The absorbance of the test wavelength of 550 nm and the reference wavelength of 650 nm was analyzed with a microplate reader (Molecular Devices, CA, USA). IC50 of each compound was determined as the concentration of the compound that inhibits cell growth by 50%.

Data set [2] deals with 6-OHDA-induced SH-SY5Y neuronal cells. As to the kind of experiment: Intracellular ROS production, H2DCFDA assay. The data set is classed as cell-based. The settings on record: Homo sapiens, 5 μM pretreatment 3 h, then 50 μM 6-OHDA 24 h, relative to control. Here is the method: ROS production in SH-SY5Y neuronal cells was investigated using H2DCFDA. 1.0 × 10^5 cells/mL of SH-SY5Y neuronal cells were seeded into 96-well plates for 24 h, and 5 μM of selected 1,2,3-triazole-based sulfonamide derivatives were pretreated for 3 h. Then, neurotoxicity of the cells were induced with 50 μM of 6-OHDA for another 24 h. The neuronal cells with 10 μM H2DCFDA were incubated for 30 min at 37 °C in the dark. The emission and excitation wavelengths of 528 nm and 485 nm, respectively, were measured by using a microplate reader. The measured ROS production was calculated as a percentage relative to the control group.

For data set [3] the test system is unchanged. As to the kind of experiment: Neuroprotection: cell viability of 6-OHDA-induced SH-SY5Y cells, MTT assay. The data set is classed as cell-based, Human. The settings on record: then 50 μM 6-OHDA 24 h. Here is the method: Prior to investigations, 1.0 × 10^5 SH-SY5Y neuronal cells/mL were seeded into 96-well plates for 24 h. To determine the optimal concentration of 6-OHDA for inducing neurotoxicity, cells were seeded into 96-well plates for 24 h and treated with various concentrations of 6-OHDA ranging from 25 to 125 μM for another 24 h. For the evaluation of the cytotoxicity of 1,2,3-triazole-based sulfonamide derivatives on SH-SY5Y neuronal cells, the cells were treated with various concentrations (0.1–10 μM) of 1,2,3-triazole-based sulfonamide derivatives for 24 h.^29 To assess the neuroprotective activity of 1,2,3-triazole-based sulfonamide derivatives, the cells were pretreated with various concentrations (0.1–10 μM) of 1,2,3-triazole-based sulfonamide derivatives for 3 h before being treated with 50 μM of 6-OHDA for another 24 h. Cell viability was assessed by incubating with 5 mg/mL of MTT reagent for 3 h at 37 °C, followed by absorbance measurement at 570 nm using a microplate reader (Thermo Fisher Scientific Inc., MA, USA). The viability of SH-SY5Y cells at each concentration was analyzed as a percentage relative to the control group.
In general terms: Formazan colour is commonly taken as a measure of viable cells.

Data set [4] shares this test system. As to the kind of experiment: Cellular leakage of LDH enzyme. The data set is classed as cell-based, Human. The settings on record: 5 μM pretreatment 3 h, then 50 μM 6-OHDA 24 h, percentage of control. Here is the method:
Leakage of LDH, an enzyme commonly used as an assessment factor to evaluate cellular damage, was measured to determine the protective ability of the compounds against 6-OHDA-induced neuronal damage. 1.0 × 10^5 cells/mL of SH-SY5Y neuronal cells were seeded into 6-well plates for 24 h. The cells were pretreated with 5 μM of 1,2,3-triazole-based sulfonamide derivatives for 3 h before being treated with 50 μM of 6-OHDA for 24 h. The cell culture medium of SH-SY5Y cells was collected, and LDH leakage was evaluated using the LDH assay kit. In the presence of LDH, lactate is converted into pyruvate, resulting in an elevated level of NADH production, which is determined via the change in absorbance at 450 nm. LDH activity was calculated according to the manufacturer’s instructions and shown as a percentage of the control group.

In data set [5] the target is T1, SIRT1 (Homo sapiens, UniProt Q96EB6).
T1 construct: endogenous in cells; host or cells: SH-SY5Y
T1 sequence (Q96EB6 1-747): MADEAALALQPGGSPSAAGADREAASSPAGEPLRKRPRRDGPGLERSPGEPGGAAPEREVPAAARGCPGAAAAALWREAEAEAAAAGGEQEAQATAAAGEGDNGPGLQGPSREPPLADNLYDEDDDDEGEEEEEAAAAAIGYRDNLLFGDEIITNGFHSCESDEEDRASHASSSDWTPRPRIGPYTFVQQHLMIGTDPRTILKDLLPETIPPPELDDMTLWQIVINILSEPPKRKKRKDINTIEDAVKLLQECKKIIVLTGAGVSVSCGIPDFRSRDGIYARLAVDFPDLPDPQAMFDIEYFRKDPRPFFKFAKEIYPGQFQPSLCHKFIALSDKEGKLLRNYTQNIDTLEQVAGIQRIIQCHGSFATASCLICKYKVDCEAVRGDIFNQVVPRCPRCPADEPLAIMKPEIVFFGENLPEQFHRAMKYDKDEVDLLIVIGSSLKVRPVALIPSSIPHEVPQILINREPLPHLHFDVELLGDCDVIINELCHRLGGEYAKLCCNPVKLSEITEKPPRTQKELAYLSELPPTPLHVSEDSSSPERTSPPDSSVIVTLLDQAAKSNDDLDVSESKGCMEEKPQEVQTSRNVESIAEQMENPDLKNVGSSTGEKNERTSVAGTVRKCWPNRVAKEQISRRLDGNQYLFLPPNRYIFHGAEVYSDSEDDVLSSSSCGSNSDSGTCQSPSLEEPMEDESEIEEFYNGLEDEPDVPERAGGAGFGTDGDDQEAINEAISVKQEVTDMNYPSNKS
As to the kind of experiment: SIRT1 deacetylase activity in SH-SY5Y cell lysate. Format: cell-based. The settings on record: 5 μM pretreatment 3 h, then 50 μM 6-OHDA 24 h, relative to control. Here is the method: SH-SY5Y neuronal cells at 1.0 × 10^5 cells/mL were seeded into 6-well plates for 24 h. Then, the cells were pretreated with 5 μM 1,2,3-triazole-based sulfonamide derivatives for 3 h before neurotoxicity was induced with 50 μM 6-OHDA for another 24 h. The cell culture medium was rinsed off with cold 1X PBS. The cells were incubated at 4 °C with 1X RIPA buffer containing a protease inhibitor for 20 min before being harvested using a cell scraper, followed by centrifugation at 12,000 rpm for 20 min. Protein concentrations were measured using the Bradford protein assay, and SIRT1 activity in the cells was determined following the manufacturer’s instructions. The increase in SIRT1 enzyme activity was measured by fluorescence intensity at an excitation wavelength of 340 nm and an emission wavelength of 445 nm. SIRT1 enzyme activity was statistically analyzed as a percentage relative to the control group.

The term IC50 denotes the concentration that gives 50% inhibition. Consider `O=S(=O)(NCCc1ccccc1)c1ccc(-n2cc(-c3ccccc3)nn2)cc1` [1a], for which 103 ± 1.31 µM corresponded to half-maximal inhibition in data set [1] (IC50).
Still for that read-out and setting: to `O=S(=O)(c1ccc(-n2cc(COc3ccccc3)nn2)cc1)N1CCc2ccccc2C1` [1b] belongs 59 ± 3.69 µM; to `O=c1ccc2ccc(OCc3cn(-c4cccc(S(=O)(=O)N5CCc6ccccc6C5)c4)nn3)cc2o1` [1c], 14.4 ± 0.34 µM.
Regarding `Cc1ccc(OCc2cn(-c3ccc(S(=O)(=O)NCCc4ccccc4)cc3)nn2)cc1` [2a], the IC50 in data set [1] came out at 89.4 ± 2.95 µM. The activity at 5 µM was 102 ± 4.74% in data set [2] and 91.9 ± 1.45% in data set [5]. Further, the “cell viability of 6-OHDA-induced cells” value in data set [3] (pretreatment 1 μM 3 h) worked out at 90.11 ± 5.567%; in data set [3] (pretreatment 5 μM 3 h), 89.25 ± 3.236%. For the same compound, the “LDH leakage (LDH activity)” value in data set [4] stood at 109.8 ± 3.826%.
On to `Cc1ccc(OCc2cn(-c3ccc(S(=O)(=O)N4CCc5ccccc5C4)cc3)nn2)cc1` [2b], for which half-maximal inhibition in data set [1] (IC50) required 70.4 ± 6.8 µM.
Same read-out and setting: next, `O=c1cc(OCc2cn(-c3cccc(S(=O)(=O)N4CCc5ccccc5C4)c3)nn2)c2ccccc2o1` [2c]: more than 97.2 µM.
With `O=Cc1ccc(OCc2cn(-c3ccc(S(=O)(=O)NCCc4ccccc4)cc3)nn2)cc1` [3a], the IC50 in data set [1] was more than 108 µM. Also, the results for the activity at 5 µM in data set [2] and in data set [5] were 103 ± 4.94% and 92.5 ± 1.98%, respectively. The “cell viability of 6-OHDA-induced cells” value in data set [3] (pretreatment 1 μM 3 h) turned out to be 85.36 ± 4.615%; in data set [3] (pretreatment 5 μM 3 h) it was 87.69 ± 4.276%. For the same compound, in data set [4], the “LDH leakage (LDH activity)” value is listed as 112.6 ± 2.585%.
In the case of `O=Cc1ccc(OCc2cn(-c3ccc(S(=O)(=O)N4CCc5ccccc5C4)cc3)nn2)cc1` [3b], the IC50 in data set [1] is more than 105 µM. Besides, the figures for the activity at 5 µM in data set [2] and in data set [5] were 103 ± 5.8% and 94.3 ± 3.28%, respectively. The “cell viability of 6-OHDA-induced cells” value in data set [3] (pretreatment 1 μM 3 h) is listed as 89.37 ± 4.597%; in data set [3] (pretreatment 5 μM 3 h), 90.41 ± 7.193%. In addition, in data set [4], the “LDH leakage (LDH activity)” value is 115.6 ± 2.926%.
With `COc1cc2c(cc1OC)CN(S(=O)(=O)c1cccc(-n3cc(COc4ccc5ccc(=O)oc5c4)nn3)c1)CC2` [3c], the IC50 in data set [1] was more than 87 µM.
The compound `O=[N+]([O-])c1ccc(OCc2cn(-c3ccc(S(=O)(=O)NCCc4ccccc4)cc3)nn2)cc1` [4a] registered a 50% inhibitory concentration (IC50) in data set [1] of 80.4 ± 3.79 µM. In addition, the activity at 5 µM in data set [2] came to 103 ± 5.15%; in data set [5], 92.9 ± 3.19%. Moreover, the “cell viability of 6-OHDA-induced cells” value in data set [3] (pretreatment 1 μM 3 h) worked out at 88.68 ± 3.959%; in data set [3] (pretreatment 5 μM 3 h) it was 85.48 ± 4.470%. The “LDH leakage (LDH activity)” value in data set [4] turned out to be 113.3 ± 6.585%.
In turn, `Cc1ccccc1OCc1cn(-c2ccc(S(=O)(=O)N3CCc4ccccc4C3)cc2)nn1` [4b] displayed an IC50 in data set [1] of 19 ± 0.89 µM. Further, the results for the activity at 5 µM in data set [2] and in data set [5] were 102 ± 5.64% and 91.06 ± 0.589%, respectively. In addition, the results for the “cell viability of 6-OHDA-induced cells” value in data set [3] (pretreatment 1 μM 3 h) and in data set [3] (pretreatment 5 μM 3 h) were 88.69 ± 4.465% and 84.03 ± 1.563%, respectively. For the same compound, in data set [4], the “LDH leakage (LDH activity)” value is reported as 113.5 ± 2.954%.
In data set [1], `COc1cc2c(cc1OC)CN(S(=O)(=O)c1cccc(-n3cc(COc4cc(=O)oc5ccccc45)nn3)c1)CC2` [4c] yielded an IC50 of more than 87 µM.
In data set [1], `Cc1ccccc1OCc1cn(-c2ccc(S(=O)(=O)NCCc3ccccc3)cc2)nn1` [5a] had an IC50 of more than 111 µM. The activity at 5 µM was found to be 104 ± 4.42% in data set [2] and 93.7 ± 2.54% in data set [5]. In addition, the “cell viability of 6-OHDA-induced cells” value came to 91.89 ± 9.100% in data set [3] (pretreatment 1 μM 3 h) and 90.88 ± 6.158% in data set [3] (pretreatment 5 μM 3 h). The “LDH leakage (LDH activity)” value in data set [4] is listed as 116.0 ± 2.698%.
Turning to `CC(=O)c1ccccc1OCc1cn(-c2ccc(S(=O)(=O)N3CCc4ccccc4C3)cc2)nn1` [5b], half-maximal inhibition in data set [1] (IC50) was put at 15.4 ± 1.1 µM.
On the same count and under the same terms, to `O=c1ccc2ccc(OCc3cn(-c4ccc(S(=O)(=O)NCCc5ccccc5)cc4)nn3)cc2o1` [6a] belongs 55.3 ± 1.45 µM; to `O=c1cc(OCc2cn(-c3ccc(S(=O)(=O)N4CCc5ccccc5C4)cc3)nn2)c2ccccc2o1` [6b], more than 97.2 µM; to `O=c1cc(OCc2cn(-c3ccc(S(=O)(=O)NCCc4ccccc4)cc3)nn2)c2ccccc2o1` [7a], more than 99.5 µM.
The compound `COc1ccc(CCNS(=O)(=O)c2ccc(-n3cc(-c4ccccc4)nn3)cc2)cc1OC` [8a] returned an IC50 in data set [1] of 78.8 ± 8.11 µM.
The same measure, in the same setting: to `COc1cccc2c1C(=O)c1c(O)c3c(c(O)c1C2=O)C[C@@](O)(C(=O)CO)C[C@@H]3O[C@H]1C[C@H](N)[C@H](O)[C@H](C)O1` [Doxorubicin, reference compound] belongs 2.57 ± 0.36 µM.
`Oc1ccc(/C=C/c2cc(O)cc(O)c2)cc1` [Resveratrol, reference compound]: the activity at 5 µM in data set [2] is 101 ± 5.5%; in data set [5], 92.6 ± 1.06%. Further, the “cell viability of 6-OHDA-induced cells” value was found to be 90.01 ± 4.738% in data set [3] (pretreatment 0.1 μM (first of four concentrations 0.1–10 μM) 3 h), 88.04 ± 6.146% in data set [3] (pretreatment 1 μM 3 h), 92.06 ± 9.069% in data set [3] (pretreatment 5 μM 3 h) and 90.47 ± 9.763% in data set [3] (pretreatment 10 μM (last of four concentrations 0.1–10 μM) 3 h). Further, in data set [4], the “LDH leakage (LDH activity)” value turned out to be 115.6 ± 2.723%.
